Data published in patent publication US11608313B2, “Adamantylmethylamine derivative and use thereof as pharmaceutical” (TOHOKU UNIVERSITY, priority 2017, dated 2023).

How the values were obtained:
Kir6.2 channels = biological target: T1, Kir6.2 channels (Mus musculus, UniProt Q61743); test: Patch-clamp assay of outward potassium current in Kir6.2 channel-overexpressing cells; assay type: cell-based; conditions: 10 nM, whole-cell patch-clamp
T1 construct: The plasmid vector having inserted therein Kir6.2 channel cDNA: pcDNA3.1-Kir6.2; expressed in transfected cells; host or cells: Neuro2A (N2A) cells, mouse neuroblastoma
T1 sequence (Q61743 1-390): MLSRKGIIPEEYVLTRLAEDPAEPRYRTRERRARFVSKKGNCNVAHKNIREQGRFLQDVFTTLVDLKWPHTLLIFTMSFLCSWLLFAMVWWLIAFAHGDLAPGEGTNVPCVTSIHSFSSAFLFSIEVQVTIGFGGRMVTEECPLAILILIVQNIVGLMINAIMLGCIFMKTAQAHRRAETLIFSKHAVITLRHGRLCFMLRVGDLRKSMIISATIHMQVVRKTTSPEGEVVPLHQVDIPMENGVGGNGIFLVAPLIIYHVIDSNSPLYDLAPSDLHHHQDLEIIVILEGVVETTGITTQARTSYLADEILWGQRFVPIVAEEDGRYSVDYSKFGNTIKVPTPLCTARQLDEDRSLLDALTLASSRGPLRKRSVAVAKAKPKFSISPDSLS
Excerpt: The Kir6.2 channel-overexpressing cells obtained in Test Example 1 were used to measure potassium current discharged out of the cells by a conventional patch-clamp assay. ATP-sensitive potassium channels (Kir6.2 channels) are localized in the cell membranes of nerve cells. When the channels are inhibited and closed, the threshold of the nerve cell membranes increases to create a condition analogous to temporal generation of action potential, with the result that intracellular potassium current is discharged out of the cells and instead extracellular calcium current enters the cells. Immunoblotting of Kir6.2 channel-overexpressing cells (prepared by the aforementioned method) using an anti-Kir6.2 channel antibody (prepared by a conventional method) (n=5, under the same conditions as in Test Example 1, except for using the anti-Kir6.2 channel antibody) confirmed that Kir6.2 channels were overexpressed in N2A cells (FIG. 2-1; upper: immunoblot staining images; lower: quantitative representations of the signal intensity of staining bands).

APP23 mice = test: Y-maze test in APP23 mice; assay type: in vivo; conditions: 1 mg/kg orally once a day for two months
Description: FIGS. 4-1 to 4-4 show the results of behavioral analyses. FIGS. 4-1 and 4-2 show the results of analysis of attentional function in wild-type mice (C57BL/6J, Japan SLC) v.s. APP23 mice (n=5 per group) by conventional Y-maze test. […] In the Y-maze test, mice are allowed to freely walk between three arms for 8 minutes. Here, the different arms are designated as A, B and C. A mouse positioned in arm A can move to arm B or C. If the mouse moves to arm B, then the mouse may move to arm C. Such a mouse moving sequentially between arms A, B and C is regarded as a mouse giving correct answer. […] The arms to which a mouse move are recorded in the order they are chosen by the mouse, and the number of times that a mouse moves between three arms within a specified time is counted and regarded as “total arm entries”. Further, the number of correct-answers (the number of times that a mouse moving sequentially between three different arms) is counted and regarded as the number of alternation behaviors (“No. of alternations”). The percentage of “No. of alternations” relative to the number obtained by subtracting 2 from “total arm entries” is expressed as percent alternation (%) which serves as an index for normal alternation behavior (correct answer rate in spatial working memory). […]

[1] = tested on: Kir6.1-deficient mice (heterozygous); test: Tail-suspension test and forced swim test in Kir6.1-deficient mice; assay type: in vivo; conditions: chronic oral treatment for 2 weeks, 1 mg/kg
Excerpt: Kir6.1-deficient mice (heterozygous, n=5 per group) were used to measure immobility time by tail-suspension test (FIG. 12-1) and forced swim test (FIG. 12-2) according to the same procedure as in Test Example 11. The heterozygous mice are those with half expression of Kir6.1 channels, unlike homozygous mice (complete Kir6.1-deficient mice) (homozygous mice die of arrhythmia after birth). […] The Kir6.1-deficient mice were obtained from Professor Susumu Seino, School of Medicine of Kobe University (Mild T., et al., Nature Medicine, 2002, 8, 466-472).

[2] = tested on: Kir6.2 channel-deficient mice; test: Behavioral tests and LTP evaluation in Kir6.2 channel-deficient mice; assay type: in vivo; conditions: Kir6.2-deficient mice, chronic treatment two months
Description: In order to confirm that TP-014 acts to inhibit Kir6.2 channels, Kir6.2 channel-deficient mice were analyzed by the same behavioral tests as in Test Example 4 (FIGS. 8-1 and 8-2: Y-maze test; FIG. 8-3: new object recognition test; FIG. 8-4: fear conditioning test; FIGS. 8-5 to FIG. 8-7: LTP improvement evaluation; n=5 per group) to identify the action site of TP-014. The results shown in FIGS. 8-1 to 8-7 confirmed that cognitive function impairment was induced in the Kir6.2-deficient mice. […] The analysis methods were the same as in Test Examples 4 to 7. Kir6.2-deficient mice were obtained from Professor Susumu Seino, School of Medicine of Kobe University (Miki T., et al., Proc. Natl. Acad. Sci. U.S.A. 1998, 95, 10402-10406).

outwardly flowing potassium current (Kir6.2 channels): suppressed
Compound: O=C(N[C@@H](c1ccccc1)[C@H]1[C@H]2C[C@@H]3C[C@](Cl)(C2)C[C@@]1(OC(=O)C(F)(F)F)C3)C(F)(F)F [TP-014, (1S,2R,3S,5S,7S)-5-chloro-2-((R)-phenyl(2,2,2-trifluoroacetamido)methyl)adamantan-1-yl 2,2,2-trifluoroacetate]
attentional function (Y-maze test, percent alternation) (APP23 mice): significantly enhanced | depression-like symptom (immobility time) [1]: no effect | memory impairment and LTP attenuation [2]: not improved
